In ChEMBL document CHEMBL1149357, “Propionylpiperazines as human melanocortin-4 receptor ligands” (Bioorg Med Chem Lett, 2006):

Assays:
Melanocortin receptor 4 [1] = target: T1, Melanocortin receptor 4 (Homo sapiens, UniProt P32245); experiment: Displacement of [125I]NDP-MSH from human MC4R stably expressed in HEK293 cells; assay type: cell-based
[2] = target: Melanocyte-stimulating hormone receptor (Homo sapiens, UniProt Q01726); experiment: Displacement of [125I]NDP-MSH from human MC1R stably expressed in HEK293 cells; assay type: cell-based
Melanocortin receptor 3 = Melanocortin receptor 3 (Homo sapiens, UniProt P41968); experiment: Displacement of [125I]NDP-MSH from human MC3R stably expressed in HEK293 cells; assay type: cell-based
Melanocortin receptor 5 = Melanocortin receptor 5 (Homo sapiens, UniProt P33032); experiment: Displacement of [125I]NDP-MSH from human MC5R stably expressed in HEK293 cells; assay type: cell-based
Melanocortin receptor 4 [3] = target: T1, Melanocortin receptor 4; experiment: Activity at MC4R assessed as inhibition of alpha MSH-stimulated cAMP production in HEK293 cells; assay type: functional, cell-based
[4] = Clearance in mouse at 5 mg/kg, iv; assay type: ADME, organism-based; parameters: dose 5 mg/kg, route intravenous; settings: in vivo
[5] = Volume of distribution in mouse at 5 mg/kg, iv; assay type: ADME, organism-based; parameters: dose 5 mg/kg, route intravenous; settings: in vivo, read-out: Vdss
[6] = Half life in mouse at 5 mg/kg, iv; assay type: ADME, organism-based; parameters: dose 5 mg/kg, route intravenous; settings: in vivo
Mus musculus [7] = experiment: AUC in mouse at 5 mg/kg, iv; assay type: ADME, organism-based, Plasma; parameters: dose 5 mg/kg, route intravenous; settings: in vivo
[8] = Drug level in mouse brain at 5 mg/kg, iv after 1 hr; assay type: ADME, organism-based; parameters: dose 5 mg/kg, route intravenous; settings: read-out: Drug uptake
[9] = Drug level in mouse brain at 5 mg/kg, iv after 4 hrs; assay type: ADME, organism-based; parameters: dose 5 mg/kg, route intravenous; settings: read-out: Drug uptake
[10] = Cmax in mouse at 10 mg/kg, po; assay type: ADME, organism-based; parameters: dose 10 mg/kg, route oral; settings: in vivo
[11] = Tmax in mouse at 10 mg/kg, po; assay type: ADME, organism-based; parameters: dose 10 mg/kg, route oral; settings: in vivo
Mus musculus [12] = experiment: AUC in mouse at 10 mg/kg, po; assay type: ADME, organism-based, Plasma; parameters: dose 10 mg/kg, route oral; settings: in vivo
[13] = Bioavailability in mouse at 10 mg/kg, po; assay type: ADME, organism-based; settings: in vivo
[14] = Lipophilicity, log D of the compound; assay type: physicochemical; settings: octanol/water

T1 sequence (P32245 whole entry): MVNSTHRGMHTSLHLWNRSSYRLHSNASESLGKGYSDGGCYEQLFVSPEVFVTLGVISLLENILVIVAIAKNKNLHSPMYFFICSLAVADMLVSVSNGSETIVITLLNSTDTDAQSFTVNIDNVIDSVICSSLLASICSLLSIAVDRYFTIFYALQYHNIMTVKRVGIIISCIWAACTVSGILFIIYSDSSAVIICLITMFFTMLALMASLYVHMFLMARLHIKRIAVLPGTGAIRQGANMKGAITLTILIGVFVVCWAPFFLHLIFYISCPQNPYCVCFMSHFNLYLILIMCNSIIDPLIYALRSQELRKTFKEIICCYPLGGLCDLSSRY
Chain of Melanocortin receptor 3 (P41968 whole entry): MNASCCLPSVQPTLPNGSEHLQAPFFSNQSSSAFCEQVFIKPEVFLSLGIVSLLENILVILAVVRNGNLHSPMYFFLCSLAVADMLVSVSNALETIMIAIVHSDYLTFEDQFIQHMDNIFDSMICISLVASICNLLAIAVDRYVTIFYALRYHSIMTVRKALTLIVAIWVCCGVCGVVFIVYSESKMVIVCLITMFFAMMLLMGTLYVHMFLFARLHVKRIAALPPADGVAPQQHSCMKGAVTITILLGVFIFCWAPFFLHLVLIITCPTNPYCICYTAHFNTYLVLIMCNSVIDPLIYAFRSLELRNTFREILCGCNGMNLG
Chain of Melanocortin receptor 5 (P33032 whole entry): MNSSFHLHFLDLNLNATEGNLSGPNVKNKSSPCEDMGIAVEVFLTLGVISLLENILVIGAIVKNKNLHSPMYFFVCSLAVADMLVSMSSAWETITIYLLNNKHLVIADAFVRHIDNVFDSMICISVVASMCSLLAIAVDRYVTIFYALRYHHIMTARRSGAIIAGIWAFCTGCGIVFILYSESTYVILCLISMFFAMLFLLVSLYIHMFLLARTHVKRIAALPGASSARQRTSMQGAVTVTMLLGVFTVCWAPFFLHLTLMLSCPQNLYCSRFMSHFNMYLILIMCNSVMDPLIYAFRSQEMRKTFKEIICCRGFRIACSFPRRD

| Structure (SMILES) | Ki (Melanocortin receptor 4 [1]) | also measured |
| --- | --- | --- |
| CC(C)C[C@H](N)c1cc(C(F)(F)F)ccc1N1CCN(C(=O)COc2ccccc2)CC1 | > 10000 nM |  |
| CC(C)C[C@H](N)c1cc(C(F)(F)F)ccc1N1CCN(C(=O)COc2ccccc2Cl)CC1 | 4500 nM |  |
| Cc1ccc(CC(C)C(=O)N2CCN(c3ccc(C(F)(F)F)cc3[C@@H](N)CC(C)C)CC2)cc1C (stereo not given in full) | 240 nM |  |
| CC(C)C[C@H](N)c1cc(C(F)(F)F)ccc1N1CCN(C(=O)CCC(N)=O)CC1 | > 10000 nM |  |
| CC(C)C[C@H](N)c1cc(C(F)(F)F)ccc1N1CCN(C(=O)CCNC2CCCCC2)CC1 | 4800 nM |  |
| COc1ccc(CC(C)C(=O)N2CCN(c3ccc(C(F)(F)F)cc3[C@@H](N)CC(C)C)CC2)cc1 (stereo not given in full) | 120 nM |  |
| CC(C)C[C@H](N)c1cc(C(F)(F)F)ccc1N1CCN(C(=O)CC(C)C(=O)c2ccc(Cl)cc2)CC1 (stereo not given in full) | 1100 nM |  |
| CC(C)C[C@H](N)c1cc(C(F)(F)F)ccc1N1CCN(C(=O)COc2ccc(O)cc2)CC1 | 4600 nM |  |
| COc1ccc(OCC(=O)N2CCN(c3ccc(C(F)(F)F)cc3[C@@H](N)CC(C)C)CC2)cc1 | 3800 nM |  |
| CC(C)C[C@H](N)c1cc(C(F)(F)F)ccc1N1CCN(C(=O)COc2cccc3ccccc23)CC1 | 2600 nM |  |
| Cc1ccc(OCC(=O)N2CCN(c3ccc(C(F)(F)F)cc3[C@@H](N)CC(C)C)CC2)cc1 | 4400 nM |  |
| CC(C)C[C@H](N)c1cc(C(F)(F)F)ccc1N1CCN(C(=O)COc2cccc(Cl)c2Cl)CC1 | 2500 nM |  |
| CC(C)C[C@H](N)c1cc(C(F)(F)F)ccc1N1CCN(C(=O)CCC(=O)N(C)C)CC1 | > 10000 nM |  |
| CC(C)C[C@H](N)c1cc(C(F)(F)F)ccc1N1CCN(C(=O)CCC(=O)c2ccc(Cl)cc2)CC1 | 820 nM |  |
| CC(C)C[C@H](N)c1cc(C(F)(F)F)ccc1N1CCN(C(=O)COc2ccc([N+](=O)[O-])cc2)CC1 | 3100 nM |  |
| CCOc1cccc(CC(C)C(=O)N2CCN(c3ccc(C(F)(F)F)cc3[C@@H](N)CC(C)C)CC2)c1 (stereo not given in full) | 2200 nM |  |
| CC(C)C[C@H](N)c1cc(C(F)(F)F)ccc1N1CCN(C(=O)CCC2CCCCC2)CC1 | 5700 nM |  |
| CC(C)C[C@H](N)c1cc(C(F)(F)F)ccc1N1CCN(C(=O)COc2ccc(Cl)cc2)CC1 | 2900 nM |  |
| CC(C)C[C@H](N)c1cc(C(F)(F)F)ccc1N1CCN(C(=O)COc2cccc(Cl)c2)CC1 | 2600 nM |  |
| CC(C)C[C@H](N)c1cc(C(F)(F)F)ccc1N1CCN(C(=O)Cn2cnc3ccccc32)CC1 | 2100 nM |  |
| CC(C)C[C@H](N)c1cc(C(F)(F)F)ccc1N1CCN(C(=O)CCCC2CCCCC2)CC1 | 4100 nM |  |
| CC(C)C[C@H](N)c1cc(C(F)(F)F)ccc1N1CCN(C(=O)COc2ccc(Cl)c(Cl)c2)CC1 | 2500 nM |  |
| CC(C)C[C@H](N)c1cc(C(F)(F)F)ccc1N1CCN(C(=O)CNc2ccccc2)CC1 | 3600 nM |  |
| COc1ccc(CC(C)C(=O)N2CCN(c3ccc(C(F)(F)F)cc3[C@@H](N)CC(C)C)CC2)cc1F (stereo not given in full) | 200 nM |  |
| Cc1ccc(OCC(=O)N2CCN(c3ccc(C(F)(F)F)cc3[C@@H](N)CC(C)C)CC2)c(C)c1 | 4000 nM |  |
| CC(C)C[C@H](N)c1cc(C(F)(F)F)ccc1N1CCN(C(=O)COc2ccc3ccccc3c2)CC1 | 2000 nM |  |

Now from value to molecule, other results behind:

| Ki (Melanocortin receptor 4 [1]) | Structure (SMILES) | also measured |
| --- | --- | --- |
| 1500 nM | CC(C)C[C@H](N)c1cc(C(F)(F)F)ccc1N1CCN(C(=O)CSc2ccc(Cl)cc2Cl)CC1 |  |
| 120 nM | CC(C)C[C@H](N)c1cc(C(F)(F)F)ccc1N1CCN(C(=O)C(C)Cc2ccc(Cl)c(Cl)c2)CC1 (stereo in doubt; 8j) |  |
| 6.5 nM | COc1cc(Cl)ccc1C[C@@H](C)C(=O)N1CCN(c2ccc(C(F)(F)F)cc2[C@@H](N)CC(C)C)CC1 |  |
| 2800 nM | CC(C)C[C@H](N)c1cc(C(F)(F)F)ccc1N1CCN(C(=O)Cc2ccc(Cl)cc2Cl)CC1 |  |
| 8.1 nM | COc1cc(Cl)ccc1C[C@@H](C)C(=O)N1CCN(c2ccc(C)cc2[C@@H](N)CC(C)C)CC1 |  |
| 1700 nM | Cc1cc(Cl)ccc1C[C@@H](C)C(=O)N1CCN(c2ccccc2[C@H](N)CC(C)C)CC1 |  |
| 8.8 nM | Cc1ccc(N2CCN(C(=O)[C@H](C)Cc3ccc(Cl)cc3Cl)CC2)c([C@@H](N)CC(C)C)c1 |  |
| 5.9 nM | Cc1ccc(N2CCN(C(=O)[C@H](C)Cc3ccc(Cl)cc3C)CC2)c([C@@H](N)CC(C)C)c1 |  |
| 67 nM | CC(C)C[C@H](N)c1ccccc1N1CCN(C(=O)[C@H](C)Cc2ccc(Cl)cc2F)CC1 |  |
| 36 nM | CC(C)C[C@H](N)c1cc(C(F)(F)F)ccc1N1CCN(C(=O)C(C)Cc2ccc(Cl)cc2O)CC1 (stereo not given in full) |  |
| 92 nM | Cc1ccc(CC(C)C(=O)N2CCN(c3ccc(C(F)(F)F)cc3[C@@H](N)CC(C)C)CC2)c(C)c1 (stereo not given in full) |  |
| 230 nM | COc1cc(CC(C)C(=O)N2CCN(c3ccc(C(F)(F)F)cc3[C@@H](N)CC(C)C)CC2)ccc1Cl (stereo not given in full) |  |
| 26 nM | CC(C)C[C@H](N)c1cc(C(F)(F)F)ccc1N1CCN(C(=O)[C@H](C)Cc2ccc(Cl)cc2Cl)CC1 |  |
| 71 nM | Cc1cc(CC(C)C(=O)N2CCN(c3ccc(C(F)(F)F)cc3[C@@H](N)CC(C)C)CC2)ccc1Cl (stereo not given in full) |  |
| 390 nM | CC(C)C[C@H](N)c1cc(F)ccc1N1CCN(C(=O)C(C)Cc2ccc(Cl)cc2)CC1 (stereo not given in full) |  |
| 31 nM | CC(C)C[C@H](N)c1cc(C(F)(F)F)ccc1N1CCN(C(=O)[C@H](C)Cc2ccc(Cl)cc2)CC1 |  |
| 9.1 nM | COc1cc(Cl)ccc1CC(C)C(=O)N1CCN(c2ccc(Cl)cc2[C@@H](N)CC(C)C)CC1 (stereo not given in full) |  |

| Ki (Melanocortin receptor 4 [1]) | Structure (SMILES) | also measured |
| --- | --- | --- |
| 160 nM | COc1ccc(CC(C)C(=O)N2CCN(c3ccc(Cl)cc3[C@@H](N)CC(C)C)CC2)cc1 (stereo not given in full) |  |
| 1600 nM | CC(C)C[C@H](N)c1cc(C(F)(F)F)ccc1N1CCN(C(=O)C(C)Cc2ccc(Cl)c(Cl)c2)CC1 (stereo in doubt; 8q) |  |
| 25 nM | Cc1ccc(N2CCN(C(=O)[C@H](C)Cc3ccc(Cl)cc3)CC2)c([C@@H](N)CC(C)C)c1 | Ki [2]: 3100 nM; Ki (Melanocortin receptor 3): 1300 nM; Ki (Melanocortin receptor 5): 1000 nM; IC50 (Melanocortin receptor 4 [3]): 560 nM; clearance [4]: 33.3 mL/min/kg; Vd [5]: 10.2 L/kg; half-life [6]: 3.5 h; AUC (Mus musculus [7]): 2560 ng·h/mL; concentration at 1 h [8]: 940 ng/g; concentration at 4 h [9]: 330 ng/g; Cmax [10]: 267 ng/mL; Tmax [11]: 0.5 h; AUC (Mus musculus [12]): 1760 ng·h/mL; bioavailability [13]: 34.4%; logD [14]: 3 |
| 920 nM | CC(C)C[C@H](N)c1cc(C(F)(F)F)ccc1N1CCN(C(=O)C(C)Cc2cccc(Cl)c2)CC1 (stereo not given in full) |  |
| 80 nM | CC(C)C[C@H](N)c1ccccc1N1CCN(C(=O)[C@H](C)Cc2ccc(Cl)cc2)CC1 |  |
| 4200 nM | CC(C)C[C@H](N)c1cc(C(F)(F)F)ccc1N1CCN(C(=O)COc2ccc(Cl)cc2Cl)CC1 |  |
| 38 nM | Cc1cc(Cl)ccc1CC(C)C(=O)N1CCN(c2ccc(C(F)(F)F)cc2[C@@H](N)CC(C)C)CC1 (stereo not given in full) |  |
| 16 nM | CC(C)C[C@H](N)c1ccccc1N1CCN(C(=O)[C@H](C)Cc2ccc(Cl)cc2Cl)CC1 |  |
| 3100 nM | COc1cccc(CC(C)C(=O)N2CCN(c3ccc(C(F)(F)F)cc3[C@@H](N)CC(C)C)CC2)c1 (stereo not given in full) |  |
| 31 nM | COc1cc(Cl)ccc1C[C@H](C)C(=O)N1CCN(c2ccc(C(F)(F)F)cc2[C@@H](N)CC(C)C)CC1 |  |
| 14 nM | COc1cc(Cl)ccc1CC(C)C(=O)N1CCN(c2ccc(C(F)(F)F)cc2[C@@H](N)CC(C)C)CC1 (stereo not given in full) | Activity [2]: 23%; Ki (Melanocortin receptor 3): 320 nM; Ki (Melanocortin receptor 5): 86 nM; IC50 (Melanocortin receptor 4 [3]): 1700 nM; clearance [4]: 62.3 mL/min/kg; Vd [5]: 10.3 L/kg; half-life [6]: 1.9 h; AUC (Mus musculus [7]): 1450 ng·h/mL; concentration at 1 h [8]: 735 ng/g; concentration at 4 h [9]: 122 ng/g; Cmax [10]: 99 ng/mL; Tmax [11]: 0.25 h; AUC (Mus musculus [12]): 249 ng·h/mL; bioavailability [13]: 8.6%; logD [14]: > 4 |
| 20 nM | Cc1ccc(N2CCN(C(=O)[C@H](C)Cc3ccc(Cl)cc3F)CC2)c([C@@H](N)CC(C)C)c1 |  |
| 12 nM | Cc1cc(Cl)ccc1C[C@@H](C)C(=O)N1CCN(c2ccccc2[C@@H](N)CC(C)C)CC1 |  |
| 60 nM | CC(C)C[C@H](N)c1cc(C(F)(F)F)ccc1N1CCN(C(=O)C(C)Cc2ccc(Cl)cc2F)CC1 (stereo not given in full) |  |
| 140 nM | CC(C)C[C@H](N)c1cc(C(F)(F)F)ccc1N1CCN(C(=O)[C@@H](C)Cc2ccc(Cl)cc2Cl)CC1 |  |
| 47 nM | CC(C)C[C@H](N)c1cc(C(F)(F)F)ccc1N1CCN(C(=O)C(C)Cc2ccc(Cl)cc2)CC1 (stereo not given in full) |  |
| 67 nM | CC(C)C[C@H](N)c1cc(Cl)ccc1N1CCN(C(=O)C(C)Cc2ccc(Cl)cc2)CC1 (stereo not given in full) |  |
